Results reported in patent publication US20200022995A1, “Novel Immunodulating Small Molecules” (AyuVis Research, Inc., priority 2018, published 2020).

Experiments:
TLR4 = TLR4 (Homo sapiens, UniProt O00206); assay: TLR4 inhibitory and activating activity in THP-1 cells; assay type: cell-based; parameters: endogenous in cells; host or cells: THP-1 monocytes, PMA-stimulated
HUVECs [1] = assay: Cytotoxicity in HUVECs (MTT); assay type: cell-based, human; conditions: 100 μM, 24 h
Method: Selected TLR2/4 antagonist compounds 2, 6, 7, 8, 14, 17 and 32 were evaluated for cytotoxicity in HUVECs at 100 μM concentration. The cells were treated with compounds and incubated for 24 h. Cell viability was assessed using MTT cell proliferation kit (Promega). All the compounds were not toxic to HUVECs (FIG. 15).

hPBMC = assay: Cytotoxicity in hPBMC (MTT); assay type: cell-based, human; conditions: 0.1, 1.0, 10, 100 and 1000 μM, 24 h
Method: The cells were treated with compounds and incubated for 24 h. Cell viability was assessed using MTT cell proliferation kit (Promega). All the compounds were not toxic to hPMBC (FIG. 12).

HUVECs [2] = assay: Anti-angiogenic activity, VEGF induced tube formation in HUVECs; assay type: cell-based, human; conditions: VEGF 100 ng/mL
Method: Selected TLR2/4 antagonist compounds 2, 6, 7, 8, 14, 17 and 32 were evaluated for anti-angiogenic activity using the Tube Formation kit (Cat #3470-096-K). VEGF (100 ng/mL) was used as positive control. These compounds have potential applications in diseases associated with pathological angiogenesis such as solid tumor, […], diabetic retinopathy as well as AMD.

THP-1 cells = assay: Monocyte differentiation, phagocytosis and intracellular killing of Pseudomonas aeruginosa in THP-1 cells; assay type: cell-based, human
Excerpt: Two of these compounds 8 and 32 stimulated monocyte differentiation into macrophages, increased phagocytosis of Pseudomonas aeruginosa (FIG. 18) and increased intracellular killing of bacteria (FIG. 19). These compounds have potential to be used as vaccine adjuvants and in combination with existing antibiotic for prophylactic treatment such as in cystic fibrosis patients.

neonatal pups with BPD = assay: Hyperoxia mouse model of BPD (newborn pups); assay type: in vivo; conditions: for lung injury in neonatal pups with BPD: mouse model of BPD; for TLR4 inhibition in an in vivo model system: neonatal pups with BPD; for lung architecture: saline IV and nanosuspension IN
Excerpt: Neonatal mice and humans undergo similar stages of lung development but differ with respect to the duration of each stage and its temporal relationship to gestational age. The lungs of the mouse born at term are in the saccular stage and are surfactant sufficient; this can be considered somewhat akin to a human preterm neonate in the same stage of lung development that has been exposed to a full complement of antenatal steroids (which is known to enhance surfactant production). In terms of mimicking the human condition, the most successful hyperoxia models are those that limit exposure to hyperoxia to the saccular stage of pulmonary development. The mouse BPD model involves exposing newborn mice (postnatal day 1 or PN1) to 100% oxygen till PN4 followed by recovery in room air (RA) for another 10 days.
After the recovery period, their lungs were harvested and processed for quantitative PCR, western blotting, histopathology and ELISA.
Each of the compounds 3, 8 or 32 encapsulated in PLGA nanoparticles referred as 3NP, 8NP and 32NP was instilled intranasally (IN) as nanosuspension to newborn pups on PN2 and PN4 at different doses (FIG. 28). After the recovery period, their lungs were harvested and processed for quantitative PCR, western blotting and histopathology and ELISA.
BPD is characterized by large simplified alveoli, inflammation, increased cell death, decreased cell proliferation, dysmorphic capillary configuration, and variable interstitial cellularity and/or fibroproliferation. […] This is determined by measuring the alveolar chord length, septal thickness and radial alveolar count (RAC). In BPD, the alveolar area increases which is characterized by increase in the diameter of the alveolar sacs, the septa become thickened (thus interfering in gaseous exchange) and the RAC, a parameter used to assess the complexity of terminal respiratory unit by pulmonologists, decreases as a result of arrested lung development.

[3] = system: P. aeruginosa (ATCC-10145 GFP) infected skin wounds; assay: Murine skin wound infection with P. aeruginosa; assay type: in vivo, C57BL/6 mice
Method: Five groups of C57BL/6 mice (8-10 weeks old, n=4) were wounded on the dorsal surface. 25 ul containing 10^6 CFU/mL P. aeruginosa in a PBS suspension were pipetted onto the wound and allowed to absorb for at least 3 min. […] Subsequently and for the next 13 days, infected wounds were treated each alternate day with colistin, or with test compounds.

[4] = system: normal lung epithelial cells (AT-1); conditions: 1 mM and 2 mM, 48 h
Method: Compounds 8, 17, 29 and 35 were tested for cytotoxicity in normal lung epithelial cells (AT-1) at concentrations of 1 mM and 2 mM. The cells were treated with compounds and incubated for 48 h. Cell viability was assessed using tryptan blue live/dead assay.

TLR4, sequence (O00206 24-839): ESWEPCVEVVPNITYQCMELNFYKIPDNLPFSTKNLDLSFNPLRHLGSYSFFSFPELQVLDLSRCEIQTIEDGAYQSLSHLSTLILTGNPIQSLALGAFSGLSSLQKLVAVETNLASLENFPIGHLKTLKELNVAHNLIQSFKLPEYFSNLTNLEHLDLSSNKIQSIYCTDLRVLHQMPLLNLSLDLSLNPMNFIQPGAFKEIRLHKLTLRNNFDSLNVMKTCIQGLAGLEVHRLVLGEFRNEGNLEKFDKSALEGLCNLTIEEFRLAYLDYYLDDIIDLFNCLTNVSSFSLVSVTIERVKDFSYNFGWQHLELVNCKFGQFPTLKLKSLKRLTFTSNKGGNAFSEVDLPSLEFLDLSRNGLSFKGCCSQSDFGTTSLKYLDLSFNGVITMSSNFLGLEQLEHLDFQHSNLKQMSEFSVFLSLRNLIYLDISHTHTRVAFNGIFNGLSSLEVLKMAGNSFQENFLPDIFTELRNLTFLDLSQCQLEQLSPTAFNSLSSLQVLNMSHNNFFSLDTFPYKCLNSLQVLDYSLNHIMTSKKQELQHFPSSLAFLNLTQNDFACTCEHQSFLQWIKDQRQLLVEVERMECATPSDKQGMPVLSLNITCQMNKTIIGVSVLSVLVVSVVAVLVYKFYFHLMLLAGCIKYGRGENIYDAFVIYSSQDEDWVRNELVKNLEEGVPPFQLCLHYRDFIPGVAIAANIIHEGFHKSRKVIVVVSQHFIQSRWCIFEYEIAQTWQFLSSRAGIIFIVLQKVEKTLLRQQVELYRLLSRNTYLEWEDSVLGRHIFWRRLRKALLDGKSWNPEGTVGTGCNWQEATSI

| TLR2/4 antagonist or TLR4 agonist activity as shown in Table-1 (TLR4) | Molecule | cytotoxicity in HUVECs (HUVECs [1]) | cytotoxicity in hPBMC (hPBMC) | VEGF induced tube formation (HUVECs [2]) | further results |
| --- | --- | --- | --- | --- | --- |
| TLR4 agonists | CC(=O)NC1C(Oc2ccc3nonc3c2)OC(CO)C(O)C1O (stereo in doubt) [Compound 17, N-((2S,3R,4S,5S,6R)-2-(benzo[c][1,2,5]oxadiazol-5-yloxy)-4,5-dihydroxy-6-(hydroxymethyl)tetrahydro-2H-pyran-3-yl)acetamide] | not toxic | not toxic | significantly deceased |  |
|  | CC(=O)NC1[C@H](Oc2ccc(B3OC(C)(C)C(C)(C)O3)cc2)O[C@H](CO)[C@@H](O)[C@@H]1O (single isomer, unassigned) [Compound 32, p-Pinacoloneboronatephenyl 2-acetamido-2-deoxy-β-D-glucopyranoside] | not toxic | not toxic | significantly deceased | monocyte differentiation into macrophages (THP-1 cells): stimulated; intracellular killing of bacteria (THP-1 cells; Pseudomonas aeruginosa, THP-1 cells): increased; phagocytosis of Pseudomonas aeruginosa (THP-1 cells; THP-1 cells): increased; lung injury in neonatal pups with BPD (neonatal pups with BPD): prevent lung injury; TLR4 inhibition in an in vivo model system (neonatal pups with BPD): inhibit TLR4; lung architecture (neonatal pups with BPD): restored |
|  | CC(=O)N[C@H]1[C@H](Oc2ccc(C#N)cc2)O[C@H](CO)[C@@H](O)[C@@H]1O [Compound 14, p-Cyanophenyl 2-acetamido-2-deoxy-β-D-glucopyranoside] | not toxic | not toxic | significantly deceased |  |
| TLR4 agonists | CC(=O)N[C@@H]1C(Oc2ccc(Cl)cc2)OC(CO)C(O)C1O (stereo partly shown) [Compound 39] |  |  |  |  |
| TLR4 agonists | CC(=O)NC1[C@H](Oc2ccc(N3CCN(C(C)=O)CC3)cc2)O[C@H](CO)[C@@H](O)[C@@H]1O (single isomer, unassigned) [Compound 28] |  |  |  |  |
|  | CC(=O)N[C@H]1[C@H](Oc2ccc(C(=O)Nc3ccc(O[C@@H]4O[C@H](COC(C)=O)[C@@H](OC(C)=O)[C@H](OC(C)=O)[C@H]4NC(C)=O)cc3)cc2)O[C@H](CO)[C@@H](O)[C@@H]1O [Compound 6] | not toxic |  | significantly deceased |  |
| TLR4 agonists | COc1ccc(OC2OC(CO)C(O)C(O)[C@@H]2NC(C)=O)cc1 (stereo partly shown) [Compound 38] |  |  |  |  |
|  | CC(=O)N[C@H]1[C@H](Oc2ccc(NC(=O)c3ccc(O[C@@H]4O[C@H](CO)[C@@H](O)[C@H](O)[C@H]4NC(C)=O)cc3)cc2)O[C@H](CO)[C@@H](O)[C@@H]1O [Compound 7] | not toxic | not toxic | significantly deceased |  |
| TLR4 agonists | CC(=O)NC1[C@H](Oc2cccc3sc(NC(=O)C(C)(C)C)nc23)O[C@H](CO)[C@@H](O)[C@@H]1O (single isomer, unassigned) [Compound 23] |  |  |  |  |
|  | CC(=O)N[C@@H]1[C@@H](O)[C@H](O)[C@@H](CO)O[C@H]1NC(=O)c1ccc(O[C@@H]2O[C@H](CO)[C@@H](O)[C@H](O)[C@H]2NC(C)=O)cc1 [Compound 3] |  |  |  | lung injury in neonatal pups with BPD (neonatal pups with BPD): prevent lung injury; TLR4 inhibition in an in vivo model system (neonatal pups with BPD): inhibit TLR4; lung architecture (neonatal pups with BPD): restored |
|  | colistin [reference compound] |  |  |  | wound closure at day 13 ([3]; 25 μl Colistin 4 μg/ml or compound 100 μg/ml, each alternate day): complete closure; re-epithelialization and granulation tissue versus controls ([3]; H&E histology, day 13 post-injury): significantly enhanced |
| TLR4 agonists | CC(=O)NC1[C@H](Oc2ccc3c(C)cc(=O)oc3c2)O[C@H](CO)[C@@H](O)[C@@H]1O (single isomer, unassigned) [Compound 29] |  |  |  |  |
|  | CC(=O)O[C@H]1C(=O)[C@@]2(C)[C@H]([C@H](OC(=O)c3ccccc3)[C@]3(O)C[C@H](OC(=O)[C@H](O)[C@@H](NC(=O)c4ccccc4)c4ccccc4)C(C)=C1C3(C)C)[C@]1(OC(C)=O)CO[C@@H]1C[C@@H]2O [Taxol] |  |  |  | cytotoxicity in normal lung epithelial cells (AT-1) [4]: toxic |
| TLR4 agonists | CC(=O)N[C@@H]1C(Oc2ccccc2O)OC(CO)C(O)C1O (stereo partly shown) [Compound 40] |  |  |  |  |
|  | CC(=O)N[C@@H]1[C@@H](OC(C)=O)[C@H](OC(C)=O)[C@@H](COC(C)=O)O[C@H]1NC(=O)c1ccc(O[C@@H]2O[C@H](CO)[C@@H](O)[C@H](O)[C@H]2NC(C)=O)cc1 [Compound 2] | not toxic | not toxic | significantly deceased |  |

| Molecule | TLR2/4 antagonist or TLR4 agonist activity as shown in Table-1 (TLR4) | cytotoxicity in HUVECs (HUVECs [1]) | cytotoxicity in hPBMC (hPBMC) | VEGF induced tube formation (HUVECs [2]) | further results |
| --- | --- | --- | --- | --- | --- |
| CC(=O)N[C@H]1[C@H](Oc2ccc3c(C)cc(=O)oc3c2)O[C@H](COS(=O)(=O)O)[C@@H](O)[C@@H]1O [Compound 30] | TLR4 agonists |  |  |  |  |
